Legend:
[1] = test system: C57BL/6 mouse colitis model induced by DSS; assay: C57BL/6 mouse colitis model induced by DSS, daily disease index; format: in vivo; conditions: po, 216 h, 10 mg/kg p.o. BID, Day 0-9, vs vehicle group, read-out: reduction ratio of DAI AUC
Protocol: To evaluate the drug efficacy of the embodiment compound on the C57BL/6 mouse colitis model induced by DSS (dextran sulfate sodium).
According to the weight of the animal, BioBook software was used to randomly group the animals on day −1 to ensure that the weight values of each group of animals were similar to reduce deviation, and the grouping and dosing regimen are shown in the following Table.
Drinking water containing DSS: an appropriate amount of DSS powder was dissolved in the autoclaved drinking water to prepare a 2% DSS solution.
On day −1, the animals were equally divided into 12 groups with 10 animals in each group. (Refer to Table 1 for specific grouping scheme)
From 9:00 on day 0 to 9:00 on day 6, the mice in groups 2 to 9 were given 2% DSS aqueous solution for 6 days (from day 0 to day 6), after which the mice were allowed to freely drink normal water for 3 days (from 9:00 on day 6 to before necropsy on day 9). The day of modeling was counted as day 0. The DSS aqueous solution was wrapped in tin foil to protect it from light. The DSS aqueous solution was replaced every 2 days.
The mice in group 1 are allowed to drink normal water freely for 9 days (from 9:00 on day 0 to before necropsy on day 9).
The recording frequency was once a day, and 4 levels were rated according to the following standards:
Bloody stool (0: negative; 4: positive);
Stool score (0: normal; 2: loose stool; 4: diarrhea)
Daily Disease Index (DAI) was obtained by dividing the sum the scores of the above 3 parts by 3. DAI-time (day) curve based on the daily DAI score was plotted, and the peak area (AUC) under the curve was calculated. The reduction ratio of DAI AUC was calculated by comparing the administration group with the vehicle group, with a calculation formula of (DAI AUCadministration group-DAI AUCvehicle)/DAI AUCVehicle×100%

[2] = test system: JAK-STAT signal pathway of U266 cells; assay: Inhibition of cellular JAK-STAT signal pathway (STAT3 phosphorylation) in U266 cells; format: cell-based, human; conditions: Homo sapiens, U-266, INF-a 1000 U/mL stimulation
Outline: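 U266 cells (100-300 K/well) preincubated 2 h at room temperature with serially diluted compound, then stimulated 15 min with IFN-α at 1000 U/mL final. After lysis, STAT3 phosphorylation read by LANCE Ultra TR-FRET (Eu antibody 0.5 nM, ULight antibody 5 nM, overnight) at 665 nm; IC50 from 4-parameter fit of inhibition versus DMSO and negative controls.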

JAK1 = JAK1 (Homo sapiens, UniProt P23458); assay: JAK kinase activity inhibition, TR-FRET (JAK1); format: biochemical; conditions: TR-FRET kinase assay
JAK1, sequence (P23458 whole entry): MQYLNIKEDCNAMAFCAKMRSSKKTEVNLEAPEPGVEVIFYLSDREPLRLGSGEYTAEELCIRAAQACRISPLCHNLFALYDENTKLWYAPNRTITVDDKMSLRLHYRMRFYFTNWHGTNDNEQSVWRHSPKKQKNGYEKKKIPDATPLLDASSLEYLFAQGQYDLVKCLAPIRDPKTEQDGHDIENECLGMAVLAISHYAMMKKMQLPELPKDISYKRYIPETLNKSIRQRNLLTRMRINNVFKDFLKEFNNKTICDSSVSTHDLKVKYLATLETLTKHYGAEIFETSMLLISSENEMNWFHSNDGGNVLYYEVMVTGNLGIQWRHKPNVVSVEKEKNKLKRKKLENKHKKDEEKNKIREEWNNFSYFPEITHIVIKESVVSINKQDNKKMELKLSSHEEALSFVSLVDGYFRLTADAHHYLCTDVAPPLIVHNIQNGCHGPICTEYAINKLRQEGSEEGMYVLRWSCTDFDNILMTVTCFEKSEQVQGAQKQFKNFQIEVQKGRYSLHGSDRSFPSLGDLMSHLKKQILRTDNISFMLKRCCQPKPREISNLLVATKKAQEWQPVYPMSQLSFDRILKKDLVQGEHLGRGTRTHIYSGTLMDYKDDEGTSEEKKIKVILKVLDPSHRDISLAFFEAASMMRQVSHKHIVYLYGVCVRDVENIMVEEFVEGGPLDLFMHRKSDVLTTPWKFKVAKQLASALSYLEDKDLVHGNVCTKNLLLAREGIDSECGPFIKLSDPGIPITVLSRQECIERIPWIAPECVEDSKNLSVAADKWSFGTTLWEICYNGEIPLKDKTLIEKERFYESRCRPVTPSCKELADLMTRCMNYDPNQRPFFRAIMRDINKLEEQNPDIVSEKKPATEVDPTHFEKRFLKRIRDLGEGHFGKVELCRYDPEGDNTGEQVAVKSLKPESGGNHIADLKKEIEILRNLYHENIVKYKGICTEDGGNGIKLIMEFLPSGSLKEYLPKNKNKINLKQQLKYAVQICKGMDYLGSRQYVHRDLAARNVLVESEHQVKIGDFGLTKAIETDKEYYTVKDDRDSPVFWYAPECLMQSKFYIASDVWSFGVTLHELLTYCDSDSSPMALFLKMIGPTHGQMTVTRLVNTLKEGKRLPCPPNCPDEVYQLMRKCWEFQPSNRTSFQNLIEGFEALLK
Outline: (§1)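 TR-FRET read (≈620 and 665 nm) after EDTA quench and 1-24 h antibody detection at RT. Kinase 0.1-20 nM, peptide substrate + ATP, 0.5-5 h RT reaction in HEPES 50-250 mM, MgCl2 5-20 mM. IC50 from 4-parameter fit vs DMSO and no-kinase controls.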

TYK2 = TYK2 (Homo sapiens, UniProt P29597); assay: JAK kinase activity inhibition, TR-FRET (TYK2); format: biochemical; conditions: TR-FRET kinase assay
TYK2, sequence (P29597 whole entry): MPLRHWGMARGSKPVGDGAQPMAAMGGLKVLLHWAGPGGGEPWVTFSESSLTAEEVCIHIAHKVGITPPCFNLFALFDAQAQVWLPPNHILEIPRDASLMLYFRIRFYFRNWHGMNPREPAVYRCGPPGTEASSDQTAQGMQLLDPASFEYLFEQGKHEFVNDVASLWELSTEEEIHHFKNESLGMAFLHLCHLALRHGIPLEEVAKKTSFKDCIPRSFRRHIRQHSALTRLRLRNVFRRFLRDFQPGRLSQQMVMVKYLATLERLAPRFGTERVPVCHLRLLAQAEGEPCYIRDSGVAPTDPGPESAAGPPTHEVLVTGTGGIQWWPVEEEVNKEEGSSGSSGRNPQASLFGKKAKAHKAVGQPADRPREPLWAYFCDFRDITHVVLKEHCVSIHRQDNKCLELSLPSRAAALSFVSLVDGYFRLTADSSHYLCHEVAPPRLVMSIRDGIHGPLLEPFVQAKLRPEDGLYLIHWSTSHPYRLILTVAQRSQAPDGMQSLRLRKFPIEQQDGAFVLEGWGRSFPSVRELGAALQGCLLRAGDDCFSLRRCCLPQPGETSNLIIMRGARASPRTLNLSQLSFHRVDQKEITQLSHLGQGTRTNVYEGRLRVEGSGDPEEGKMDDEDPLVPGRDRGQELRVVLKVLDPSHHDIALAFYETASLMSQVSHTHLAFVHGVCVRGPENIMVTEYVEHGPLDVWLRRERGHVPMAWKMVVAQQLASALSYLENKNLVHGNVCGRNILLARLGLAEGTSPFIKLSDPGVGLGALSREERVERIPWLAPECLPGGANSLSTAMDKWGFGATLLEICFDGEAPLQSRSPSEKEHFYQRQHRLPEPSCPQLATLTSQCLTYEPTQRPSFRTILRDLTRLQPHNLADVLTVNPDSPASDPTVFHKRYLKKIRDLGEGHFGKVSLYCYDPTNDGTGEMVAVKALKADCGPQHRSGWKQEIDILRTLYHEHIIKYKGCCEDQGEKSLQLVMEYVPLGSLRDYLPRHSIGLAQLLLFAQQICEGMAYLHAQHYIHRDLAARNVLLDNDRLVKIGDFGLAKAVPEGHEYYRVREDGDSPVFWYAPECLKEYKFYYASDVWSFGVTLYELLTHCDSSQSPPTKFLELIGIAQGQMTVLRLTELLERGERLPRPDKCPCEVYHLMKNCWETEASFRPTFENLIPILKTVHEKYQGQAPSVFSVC
Outline: as §1

JAK2 = JAK2 (Homo sapiens, UniProt O60674); assay: JAK kinase activity inhibition, TR-FRET (JAK2); format: biochemical; conditions: TR-FRET kinase assay
JAK2, sequence (O60674 whole entry): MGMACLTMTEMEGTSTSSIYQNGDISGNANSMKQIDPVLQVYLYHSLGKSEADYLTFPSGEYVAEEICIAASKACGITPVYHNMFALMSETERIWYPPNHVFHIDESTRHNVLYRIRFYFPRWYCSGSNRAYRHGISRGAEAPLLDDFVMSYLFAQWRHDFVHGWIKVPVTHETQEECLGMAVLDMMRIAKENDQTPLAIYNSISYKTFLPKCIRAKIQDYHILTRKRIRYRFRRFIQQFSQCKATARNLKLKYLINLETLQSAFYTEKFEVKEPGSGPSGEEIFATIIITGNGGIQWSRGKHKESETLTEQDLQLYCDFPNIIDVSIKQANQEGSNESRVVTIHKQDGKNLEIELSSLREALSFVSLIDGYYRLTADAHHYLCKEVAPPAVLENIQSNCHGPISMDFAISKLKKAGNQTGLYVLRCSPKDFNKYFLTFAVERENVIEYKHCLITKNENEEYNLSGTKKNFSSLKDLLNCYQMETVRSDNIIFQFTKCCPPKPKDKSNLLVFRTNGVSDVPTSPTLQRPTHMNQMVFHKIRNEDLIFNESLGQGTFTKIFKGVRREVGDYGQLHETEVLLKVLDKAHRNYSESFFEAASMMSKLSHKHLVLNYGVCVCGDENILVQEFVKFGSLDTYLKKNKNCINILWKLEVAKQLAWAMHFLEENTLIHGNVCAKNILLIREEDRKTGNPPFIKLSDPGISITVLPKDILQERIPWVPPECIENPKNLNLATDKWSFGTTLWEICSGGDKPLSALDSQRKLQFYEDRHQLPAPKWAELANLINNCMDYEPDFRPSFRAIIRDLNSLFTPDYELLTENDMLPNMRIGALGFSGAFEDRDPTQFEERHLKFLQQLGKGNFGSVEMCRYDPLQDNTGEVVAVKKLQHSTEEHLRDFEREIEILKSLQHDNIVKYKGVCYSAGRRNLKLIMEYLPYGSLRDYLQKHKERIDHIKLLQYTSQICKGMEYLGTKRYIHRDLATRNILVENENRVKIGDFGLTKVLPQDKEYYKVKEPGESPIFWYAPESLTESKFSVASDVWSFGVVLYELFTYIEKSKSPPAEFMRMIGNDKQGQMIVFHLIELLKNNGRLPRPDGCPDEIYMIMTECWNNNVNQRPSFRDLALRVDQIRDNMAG
Protocol: (§2) Experimental objective: The objective of this test is to test the inhibitory effect of the compound on JAK kinase activity.
(§3) Experimental method: the fluorescence resonance energy transfer (TR-FRET) method was used to test the inhibitory effect of the compound on JAK kinase activity, and the half inhibitory concentration IC50 of the compound on JAK kinase activity was obtained.
(§4) Kinase reaction was carried out in a white 384-well plate (PerkinElmer). 1-5 μL of different concentrations of the compound diluted with DMSO and ddH2O was added into each well, and 1-5 μL of the corresponding solvent was added to the positive control wells, followed by addition of 0.1-20 nM JAK kinase solution diluted with 1-5 μL of kinase buffer (HEPES 50-250 mM, MgCl2 5-20 mM, etc.) was added to each well. 1-5 μL of kinase buffer was added to the negative control well. 1-5 μL of substrate mixture containing peptide substrate and ATP was added. The plate was incubated at room temperature for 0.5-5 hours. […], EDTA and detection solution containing labeled antibody was added, and then the plate was incubated at room temperature for another 1-24 hours. The fluorescence signal value at about 620 nm and 665 nm of each well was measured by BioTek Synergy H1 plate reader, and the inhibition rate was calculated by the fluorescence signal value. According to the inhibition rate of different concentrations, the IC50 of the compound was obtained by curve fitting.
(§5) The percentage inhibition data of the wells treated with the compound was calculated with the positive control wells (DMSO control wells) and negative control wells (no kinase added) on the plate {% inhibition rate=100-[(test compound value-negative control value)]/(Positive control value-negative control value)×100}. IC50 value was calculated by using GraphPad prism to fit the data of different concentrations and corresponding percentage inhibition rates to a 4-parameter non-linear logic formula.

JAK3 = target: T1, JAK3 (Homo sapiens, UniProt P52333); assay: JAK kinase activity inhibition, TR-FRET (JAK3); format: biochemical; conditions: TR-FRET kinase assay
T1 sequence (P52333 1-1124): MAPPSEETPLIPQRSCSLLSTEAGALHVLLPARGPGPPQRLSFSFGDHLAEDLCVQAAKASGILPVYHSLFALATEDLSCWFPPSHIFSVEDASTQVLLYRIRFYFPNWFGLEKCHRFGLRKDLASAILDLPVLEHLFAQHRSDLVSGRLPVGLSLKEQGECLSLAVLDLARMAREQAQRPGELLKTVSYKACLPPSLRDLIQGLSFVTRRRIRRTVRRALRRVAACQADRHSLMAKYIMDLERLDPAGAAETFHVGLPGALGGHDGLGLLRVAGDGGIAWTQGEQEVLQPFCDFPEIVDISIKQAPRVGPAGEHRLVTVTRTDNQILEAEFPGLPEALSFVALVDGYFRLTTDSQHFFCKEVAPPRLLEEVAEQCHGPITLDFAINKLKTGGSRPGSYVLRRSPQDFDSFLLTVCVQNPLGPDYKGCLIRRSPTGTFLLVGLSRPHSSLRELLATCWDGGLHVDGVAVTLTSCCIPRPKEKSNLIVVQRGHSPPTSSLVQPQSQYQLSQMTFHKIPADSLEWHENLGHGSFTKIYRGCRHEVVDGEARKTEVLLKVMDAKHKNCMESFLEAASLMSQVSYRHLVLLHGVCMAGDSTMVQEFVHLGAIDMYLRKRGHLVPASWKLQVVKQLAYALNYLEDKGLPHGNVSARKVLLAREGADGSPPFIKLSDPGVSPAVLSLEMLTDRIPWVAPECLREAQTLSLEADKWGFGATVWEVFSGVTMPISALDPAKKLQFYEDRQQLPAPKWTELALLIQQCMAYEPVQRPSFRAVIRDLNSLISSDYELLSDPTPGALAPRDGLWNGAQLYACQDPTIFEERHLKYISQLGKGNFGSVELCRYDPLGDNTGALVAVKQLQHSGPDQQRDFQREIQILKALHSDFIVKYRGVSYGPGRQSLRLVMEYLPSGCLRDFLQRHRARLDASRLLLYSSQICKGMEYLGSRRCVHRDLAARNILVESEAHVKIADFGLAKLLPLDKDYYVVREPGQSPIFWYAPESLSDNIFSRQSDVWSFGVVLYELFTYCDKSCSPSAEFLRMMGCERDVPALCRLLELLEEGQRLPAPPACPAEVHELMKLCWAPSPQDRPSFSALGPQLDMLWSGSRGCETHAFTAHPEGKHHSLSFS
Protocol: as §2, §3, §4, §5

SMILES | change in vivo at 10 mg/kg [1] | IC50 [2] | IC50 (JAK1) | IC50 (TYK2) | IC50 (JAK2) | IC50 (JAK3)
Cc1cc(Nc2nc(N[C@@H]3C[C@H]4CC[C@@H](C3)N4CCC#N)nc3sccc23)n[nH]1 [Embodiment 62, 3-((3-exo)-3-((4-((5-methyl-1H-pyrazol-3-yl)amino)thieno[2,3-d]pyrimidin-2-yl)amino)-8-azabicyclo[3.2.1]oct-8-yl)propionitrile] | -32.2% | 1.9 nM | 0.08 nM | 0.17 nM | – | –
N#CCCN1[C@@H]2CC[C@H]1C[C@H](Nc1nc(Nc3cc(CO)[nH]n3)c3ccsc3n1)C2 [Embodiment 273] | – | 41.9 nM | 1.28 nM | 2.19 nM | 2.96 nM | > 200 nM
Cc1cc(Nc2nc(N[C@@H]3C[C@H]4CC[C@@H](C3)N4CCC#N)nc3ccccc23)n[nH]1 [Embodiment 4, 3-((3-exo)-3-((4-((5-methyl-1H-pyrazol-3-yl)amino)quinazolin-2-yl)amino)-8-azabicyclo[3.2.1]oct-8-yl)propionitrile] | – | 2.6 nM | 0.86 nM | 0.68 nM | 0.55 nM | 5.72 nM
CN(c1nc(Nc2cc(CO)[nH]n2)c2ccsc2n1)[C@@H]1C[C@H]2CCC[C@@H](C1)N2S(=O)(=O)N1CC(C#N)C1 [Embodiment 132, 1-(((3-exo)-3-((4-((5-(hydroxymethyl)-1H-pyrazol-3-yl)amino)thieno[2,3-d]pyrimidin-2-yl)(methyl)amino)-9-azabicyclo[3.3.1]non-9-yl)sulfonyl)azetindin-3-formonitrile] | – | 23.8 nM | 0.1 nM | 0.42 nM | 0.77 nM | 3.43 nM
Cc1cc(Nc2nc(N(C)[C@@H]3C[C@H]4CC[C@@H](C3)N4S(=O)(=O)N3CC(C#N)C3)nc3sccc23)n[nH]1 [Embodiment 241, 1-(((3-exo)-3-(methyl(4-((5-methyl-1H-pyrazol-3-yl)amino)thieno[2,3-d]pyrimidin-2-yl)amino)-8-azabicyclo[3.2.1]oct-8-yl)sulfonyl)azetindin-3-formonitrile] | – | 115 nM | 0.15 nM | 0.22 nM | 1.39 nM | 7.35 nM
Cc1cc(Nc2nc(N[C@@H]3C[C@H]4CC[C@@H](C3)N4C(=O)CN(C)C)nc3sccc23)n[nH]1 [Embodiment 243, 2-(dimethylamine)-1-((3-exo)-3-((4-((5-methyl-1H-pyrazol-3-yl)amino)thieno[2,3-d]pyrimidin-2-yl)amino)-8-azabicyclo[3.2.1]oct-8-yl)ethane-1-one] | – | 0.24 nM | 0.53 nM | 1.48 nM | 2.42 nM | 148 nM
